Measurements as given in ChEMBL document CHEMBL4038308, “Lipophosphonoxins II: Design, Synthesis, and Properties of Novel Broad Spectrum Antibacterial Agents” (J Med Chem, 2017).
The source made the active and inactive calls.

Experiments:
[1] = Chemical stability of compound at 50 to 500 mg/L at pH 5 after 24 hrs at room temperature by LC-MS analysis; assay type: physicochemical; conditions: buffer, pH 5, 24 h
TERT-RPE1 [2] = assay: Cytotoxicity against human RPE1 cells assessed as reduction in cell viability after 48 hrs by ATPlite reagent based assay; conditions: tert-rpe1, 48 h
[3] = system: Stenotrophomonas maltophilia; assay: Antibacterial activity against Stenotrophomonas maltophilia S2-23 after 24 hrs by microdilution method; assay type: functional; conditions: S2-23, 24 h
Oryctolagus cuniculus [4] = assay: Toxicity in topically applied rabbit assessed as skin irritation measured by measuring physiological abnormalities up to 7 days post dose; conditions: in vivo, topical_or_ocular, 168 h
Pseudomonas aeruginosa [5] = assay: Induction of cytoplasmic membrane permeabilization in Pseudomonas aeruginosa CCM 3955 assessed as increase in propidium iodide fluorescence intensity at 5 mg/L by spectrofluorometric analysis; assay type: functional
TERT-RPE1 [6] = assay: Cytotoxicity against human RPE1 cells assessed as disruption of cell membrane integrity after 4 hrs by CytoTox-ONE-based assay; conditions: tert-rpe1, 4 h
HepG2 [7] = assay: Induction of apoptosis in human HepG2 cells assessed as caspase 3/7 activation up to 80 mg/L after 4 hrs by caspase-Glo 3/7 luminescent assay; assay type: cell-based; conditions: hepg2, 4 h
HepG2 [8] = assay: Cytotoxicity against human HepG2 cells assessed as reduction in cell viability after 48 hrs by ATPlite reagent based assay; conditions: hepg2, 48 h
Pseudomonas aeruginosa [9] = assay: Antibacterial activity against Pseudomonas aeruginosa 16575 after 24 hrs by microdilution method; assay type: functional; conditions: Pseudomonas aeruginosa, 16575, 24 h
[10] = Chemical stability of compound at 50 to 500 mg/L at pH 5 after 24 hrs at 37 degC by LC-MS analysis; assay type: physicochemical; conditions: buffer, pH 5, 24 h
Bacillus subtilis [11] = assay: Antibacterial activity against Bacillus subtilis assessed as inhibition of protein synthesis at 1.5 mg/L after 50 mins by [35S]-methionine incorporation assay; assay type: functional
Bacillus subtilis [12] = assay: Antibacterial activity against Bacillus subtilis after 24 hrs by microdilution method; assay type: functional
[13] = Chemical stability of compound at 50 to 500 mg/L at pH 0.18 after 24 hrs at room temperature by LC-MS analysis; assay type: physicochemical; conditions: buffer, pH 0.18, 24 h
Escherichia coli [14] = assay: Bactericidal activity against Escherichia coli CCM 3954 assessed as reduction in bacterial count at 12.5 mg/L after 45 mins by time kill assay; assay type: functional
Escherichia coli [15] = assay: Induction of cytoplasmic membrane permeabilization in Escherichia coli CCM 3954 assessed as increase in propidium iodide fluorescence intensity at 5 mg/L by spectrofluorometric analysis; assay type: functional
Bacillus subtilis [16] = assay: Antibacterial activity against Bacillus subtilis assessed as inhibition of plasma membrane lipids synthesis at 1.5 mg/L after 50 mins by [3H]-sodium acetate incorporation assay; assay type: functional
Escherichia coli [17] = assay: Bactericidal activity against Escherichia coli CCM 3954 assessed as reduction in bacterial count at 25 mg/L after 30 mins by time kill assay; assay type: functional
TERT-RPE1 [18] = assay: Induction of apoptosis in human RPE1 cells assessed as caspase 3/7 activation up to 80 mg/L after 4 hrs by caspase-Glo 3/7 luminescent assay; assay type: cell-based; conditions: tert-rpe1, 4 h
Escherichia coli [19] = assay: Antibacterial activity against Escherichia coli 16702 after 24 hrs by microdilution method; assay type: functional; conditions: Escherichia coli, 16702, 24 h
[20] = Pore forming activity across black lipid bilayer membranes assessed as induction of variation in membrane current by measuring pore conductance at 5 ug/ml
[21] = system: Staphylococcus haemolyticus; assay: Antibacterial activity against fluoroquinolne-resistant Staphylococcus haemolyticus 16568 after 24 hrs by microdilution method; assay type: functional; conditions: Staphylococcus haemolyticus, 16568, 24 h
TERT-RPE1 [22] = assay: Cytotoxicity against human RPE1 cells assessed as disruption of cell membrane integrity at >80 mg/L after 4 hrs by CytoTox-ONE-based assay; conditions: tert-rpe1, 4 h
Oryctolagus cuniculus [23] = assay: Toxicity in topically applied rabbit assessed as skin irritation measured up to 14 days post dose; conditions: in vivo, topical_or_ocular, 336 h
Staphylococcus aureus [24] = assay: Bactericidal activity against Staphylococcus aureus CCM 4223 assessed as reduction in bacterial count at 25 mg/L after 6 hrs by time kill assay; assay type: functional
Staphylococcus aureus [25] = assay: Induction of cytoplasmic membrane permeabilization in Staphylococcus aureus CCM 4223 assessed as increase in propidium iodide fluorescence intensity at 5 mg/L by spectrofluorometric analysis; assay type: functional
Oryctolagus cuniculus [26] = assay: Toxicity in topically dosed rabbit assessed as skin irritation by measuring behavioral abnormalities measured up to 7 days post dose; assay type: organism-based; conditions: in vivo, topical_or_ocular, 168 h
[27] = system: Staphylococcus epidermidis; assay: Induction of cytoplasmic membrane permeabilization in Staphylococcus epidermidis 8700/B assessed as increase in propidium iodide fluorescence intensity at 5 mg/L by spectrofluorometric analysis; assay type: functional
HepG2 [28] = assay: Cytotoxicity against human HepG2 cells assessed as disruption of cell membrane integrity after 4 hrs by CytoTox-ONE-based assay; conditions: hepg2, 4 h
Bacillus subtilis [29] = assay: Antibacterial activity against Bacillus subtilis assessed as inhibition of RNA synthesis at 1.5 mg/L after 50 mins by [3H]-uridine incorporation assay; assay type: functional
J774.A1 = assay: Cytotoxicity against mouse J774A.1 cells assessed as damage to cell membrane by measuring propidium iodide intake at 5 mg/L by spectrofluorometric analysis; assay type: cell-based
Escherichia coli [30] = assay: Antibacterial activity against Escherichia coli CCM 3954 after 24 hrs by microdilution method; assay type: functional; conditions: CCM 3954, 24 h
Lipid bilayer = assay: Binding affinity to DOPG large unilamellar vesicle assessed as carboxyfluorescein leakage at 10 mg/L after 20 secs by fluorescence-based assay relative to control
Mus musculus [31] = assay: Toxicity in ICR mouse assessed as mortality up to 2000 mg/kg, po administered as single dose measured for 2 weeks; assay type: organism-based; conditions: in vivo, 336 h
Pseudomonas aeruginosa [32] = assay: Antibacterial activity against Pseudomonas aeruginosa CCM 3955 after 24 hrs by microdilution method; assay type: functional; conditions: CCM 3955, 24 h
[33] = Chemical stability of compound at 50 to 500 mg/L at pH 0.18 after 24 hrs at 37 degC by LC-MS analysis; assay type: physicochemical; conditions: buffer, pH 0.18, 24 h
Burkholderia multivorans = assay: Antibacterial activity against Burkholderia multivorans after 24 hrs by microdilution method; assay type: functional
BJ = assay: Cytotoxicity against human BJ cells assessed as reduction in cell viability after 48 hrs by ATPlite reagent based assay
[34] = Critical micellar concentration of the compound by capillary electrophoresis method
[35] = system: Staphylococcus epidermidis; assay: Antibacterial activity against Staphylococcus epidermidis 8700/B after 24 hrs by microdilution method; assay type: functional
Acinetobacter baumannii = assay: Antibacterial activity against Acinetobacter baumannii A3-08 after 24 hrs by microdilution method; assay type: functional; conditions: A3-08, 24 h
Bacillus subtilis [36] = assay: Antibacterial activity against Bacillus subtilis assessed as inhibition of DNA synthesis at 1.5 mg/L after 50 mins by [3H]thymidine incorporation assay; assay type: functional
[37] = Chemical stability of compound at 50 to 500 mg/L at pH 8.8 after 24 hrs at room temperature by LC-MS analysis; assay type: physicochemical; conditions: buffer, pH 8.8, 24 h
Bacillus subtilis [38] = assay: Antibacterial activity against Bacillus subtilis assessed as inhibition of peptidoglycan synthesis at 1.5 mg/L after 50 mins by [3H]-N-acetylglucosamine incorporation assay; assay type: functional
Enterococcus faecalis = assay: Antibacterial activity against Enterococcus faecalis CCM 4224 after 24 hrs by microdilution method; assay type: functional; conditions: CCM 4224, 24 h
Staphylococcus aureus [39] = assay: Bactericidal activity against Staphylococcus aureus CCM 4223 assessed as reduction in bacterial count at 6.25 to 12.5 mg/L after 24 hrs by time kill assay; assay type: functional
Salmonella enteritidis = assay: Antibacterial activity against Salmonella enteritidis S2-25 after 24 hrs by microdilution method; assay type: functional, Salmonella enterica subsp. enterica serovar Enteritidis; conditions: Salmonella enterica, S2-25, 24 h
Staphylococcus aureus [40] = assay: Antibacterial activity against methicillin-resistant Staphylococcus aureus 4591 clinical isolates after 24 hrs by microdilution method; assay type: functional; conditions: Staphylococcus aureus, 4591, 24 h
[41] = Chemical stability of compound at 50 to 500 mg/L at pH 8.8 after 24 hrs at 37 degC by LC-MS analysis; assay type: physicochemical; conditions: buffer, pH 8.8, 24 h
Streptococcus agalactiae = assay: Antibacterial activity against Streptococcus agalactiae after 24 hrs by microdilution method; assay type: functional
Mus musculus [42] = assay: Toxicity in ICR mouse assessed as body weight loss up to 2000 mg/kg, po administered as single dose measured for 2 weeks; assay type: organism-based; conditions: in vivo, 336 h
Staphylococcus aureus [43] = assay: Antibacterial activity against Staphylococcus aureus CCM 4223 after 24 hrs by microdilution method; assay type: functional; conditions: CCM 4223, 24 h
Enterococcus faecium = assay: Antibacterial activity against vancomycin-resistant Enterococcus faecium 419/ana clinical isolates after 24 hrs by microdilution method; assay type: functional

CCCCCCCCCCCCCCCOP(=O)(CCN(CCCNC(=N)N)CCCNC(=N)N)OC[C@H]1O[C@@H](n2ccc(=O)[nH]c2=O)[C@H](O)[C@@H]1O (some centres not stated)
1.42 mM: CMC [34]
0.78 µg/mL: MIC (Escherichia coli [19]) | MIC (Escherichia coli [30]) | MIC (Pseudomonas aeruginosa [32])
0.39 µg/mL: MIC (Bacillus subtilis [12])
Non-Toxic: Activity (Oryctolagus cuniculus [4]) | Activity (TERT-RPE1 [6]) | Activity (HepG2 [7]) | Activity (TERT-RPE1 [18]) | Activity (TERT-RPE1 [22]) | Activity (Oryctolagus cuniculus [23]) | Activity (Oryctolagus cuniculus [26]) | Activity (HepG2 [28]) | Activity (J774.A1) | Activity (Mus musculus [31]) | Activity (Mus musculus [42])
1.56 µg/mL: MIC (Pseudomonas aeruginosa [9]) | MIC [21] | MIC [35] | MIC (Salmonella enteritidis) | MIC (Streptococcus agalactiae)
< 85%: Activity (Lipid bilayer)
3.13 µg/mL: MIC [3] | MIC (Acinetobacter baumannii) | MIC (Staphylococcus aureus [40]) | MIC (Staphylococcus aureus [43])
inactive: inhibition (Bacillus subtilis [11]) | inhibition (Bacillus subtilis [16]) | inhibition (Bacillus subtilis [29]) | inhibition (Bacillus subtilis [36]) | inhibition (Bacillus subtilis [38])
39.8 mg/L: Activity (TERT-RPE1 [2])
25 µg/mL: MIC (Burkholderia multivorans) | MIC (Enterococcus faecalis)
50 µg/mL: MIC (Enterococcus faecium)
36.7 mg/L: Activity (HepG2 [8])
active: Activity (Pseudomonas aeruginosa [5]) | Activity (Escherichia coli [14]) | Activity (Escherichia coli [15]) | Activity (Escherichia coli [17]) | Activity (Staphylococcus aureus [24]) | Activity (Staphylococcus aureus [25]) | Activity [27] | Activity (Staphylococcus aureus [39])
Stable: Stability [1] | Stability [10] | Stability [13] | Stability [33] | Stability [37] | Stability [41]
29.6 mg/L: Activity (BJ)
23 to 168 pS: Activity [20]
